Assay results published in patent US12528814B2, “Bifunctional degraders of interleukin-1 receptor-associated kinases and therapeutic use thereof” (NURIX THERAPEUTICS, INC., priority 2020, dated 2026).
pIC50: −log10 of the molar value. Where two headings read alike, the source gives them in different places.

Assays:
IRAK4 [1] = target: T1, IRAK4 (Homo sapiens (Human), UniProt Q9NWZ3); test: IRAK4 Degradation HiBiT Assay; details: HiBiT-tagged Jurkat cells, 4 hrs; for Dmax: Jurkat; for DC50: read-out: Cellular IRAK4 HiBiT: DC50
Target sequence in this assay (Q9NWZ3 whole entry): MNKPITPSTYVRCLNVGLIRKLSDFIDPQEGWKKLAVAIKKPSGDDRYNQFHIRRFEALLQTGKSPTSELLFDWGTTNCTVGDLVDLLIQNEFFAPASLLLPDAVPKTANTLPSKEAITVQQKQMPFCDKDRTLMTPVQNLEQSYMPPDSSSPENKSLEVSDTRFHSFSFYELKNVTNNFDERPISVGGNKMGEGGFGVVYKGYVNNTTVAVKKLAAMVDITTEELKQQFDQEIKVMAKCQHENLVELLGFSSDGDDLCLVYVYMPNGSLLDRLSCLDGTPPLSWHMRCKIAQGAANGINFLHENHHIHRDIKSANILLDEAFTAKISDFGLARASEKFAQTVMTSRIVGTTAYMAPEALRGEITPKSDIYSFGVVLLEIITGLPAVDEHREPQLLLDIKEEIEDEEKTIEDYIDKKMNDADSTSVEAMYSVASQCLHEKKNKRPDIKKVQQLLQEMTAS

IRAK4 [2] = target: T1, IRAK4; test: IRAK4 Biochemical HTRF Kinase Assay; details: read-out: IRAK4 HTRF biochemical: IC50
Outline: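 HTRF KinEASE STK S1 format measuring IRAK4 phosphorylation of biotinylated peptide; reaction solution of 5 μM STK-S1, 10 mM ATP, 10 mM MgCl2 added (stock, to 10 μl final), 90 min at ambient temperature, detection 60 min. IC50 from sixteen-point duplicate curves by non-linear regression.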
Target sequence in this assay (Q9NWZ3 whole entry, species assumed): as the sequence (Q9NWZ3 whole entry) above

[3] = read-out: Cellular IRAK4 HiBiT: Dmax, Table 4
[4] = read-out: Cellular IRAK4 HiBiT: Dmax, Table 5, multiple runs

Row | Structure (SMILES) | Dmax (IRAK4 [1]; [3]) | Dmax (IRAK4 [1]; [4]) | DC50 (IRAK4 [1]; Table 4) | DC50 (IRAK4 [1]; Table 5, multiple runs) | pIC50 (IRAK4 [2]; Table 4) | pIC50 (IRAK4 [2]; Table 5, multiple runs)
1 | CC(C)Nc1cc(-c2ccc3cc(C#N)cnn23)ncc1-c1nnc(N2CCN(C3CCN(Cc4ccc5c(c4)C(=O)N(C4CCC(=O)NC4=O)C5=O)CC3)CC2)s1 (centres unmarked) [Example 18, 7-(5-(5-(4-(1-((2-(2,6-dioxopiperidin-3-yl)-1,3-dioxoisoindolin-5-yl)methyl)piperidin-4-yl)piperazin-1-yl)-1,3,4-thiadiazol-2-yl)-4-(isopropylamino)pyridin-2-yl)pyrrolo[1,2-b]pyridazine-3-carbonitrile] | 88% | 87% | 123 nM | 113 nM | 8.72 | 8.72
2 | CC(C)Nc1cc(-c2ccc3cc(C#N)cnn23)ncc1-c1nnc(N2CCN(C(=O)C3CCN(c4ccc5c(c4)C(=O)N(C4CCC(=O)NC4=O)C5=O)CC3)CC2)s1 (centres unmarked) [Example 23, 7-{5-[5-(4-{1-[2-(2,6-dioxopiperidin-3-yl)-1,3-dioxo-2,3-dihydro-1H-isoindol-5-yl]piperidine-4-carbonyl}piperazin-1-yl)-1,3,4-thiadiazol-2-yl]-4-[(propan-2-yl)amino]pyridin-2-yl}pyrrolo[1,2-b]pyridazine-3-carbonitrile] | 97% | 108% | 184 nM | 57 nM | 8.82 | 8.82
3 | CC(C)Nc1cc(-c2ccc3cc(C#N)cnn23)ncc1-c1nnc(N2CCN(C3CCN(C(=O)CNc4cccc5c4C(=O)N(C4CCC(=O)NC4=O)C5=O)CC3)CC2)s1 (centres unmarked) [Example 74, 7-(5-(5-(4-(1-((2-(2,6-dioxopiperidin-3-yl)-1,3-dioxoisoindolin-4-yl)glycyl)piperidin-4-yl)piperazin-1-yl)-1,3,4-thiadiazol-2-yl)-4-(isopropylamino)pyridin-2-yl)pyrrolo[1,2-b]pyridazine-3-carbonitrile] | – | 82% | – | 28.9 nM | – | 8.60
4 | CNc1cc(-c2ccc3cc(C#N)cnn23)ncc1-c1nnc(N2CCN(C(=O)C3CCN(c4cccc5c4C(=O)N(C4CCC(=O)NC4=O)C5=O)CC3)CC2)s1 (centres unmarked) [Example 89, 7-(5-(5-(4-(1-(2-(2,6-dioxopiperidin-3-yl)-1,3-dioxoisoindolin-4-yl)piperidine-4-carbonyl)piperazin-1-yl)-1,3,4-thiadiazol-2-yl)-4-(methylamino)pyridin-2-yl)pyrrolo[1,2-b]pyridazine-3-carbonitrile] | – | – | – | > 9980 nM | – | 9.05
5 | CNc1cc(-c2ccc3cc(C#N)cnn23)ncc1-c1nnc(C23CCC(NC(=O)CCCCCC(=O)N[C@H](C(=O)N4C[C@H](O)C[C@H]4C(=O)N[C@@H](C)c4ccc(-c5scnc5C)cc4)C(C)(C)C)(CC2)CC3)s1 [Example 131, N1-(4-(5-(6-(3-cyanopyrrolo[1,2-b]pyridazin-7-yl)-4-(methylamino)pyridin-3-yl)-1,3,4-thiadiazol-2-yl)bicyclo[2.2.2]octan-1-yl)-N7-((S)-1-((2S,4R)-4-hydroxy-2-(((S)-1-(4-(4-methylthiazol-5-yl)phenyl)ethyl)carbamoyl)pyrrolidin-1-yl)-3,3-dimethyl-1-oxobutan-2-yl)heptanediamide] | – | 109% | – | 124 nM | – | 8.68
6 | CNc1cc(-c2ccc3cc(C#N)cnn23)ncc1-c1nnc(N2CCN(C(=O)C3CCN(Cc4ccc5c(c4)C(=O)N(C4CCC(=O)NC4=O)C5=O)CC3)CC2)s1 (centres unmarked) [Example 86, 7-(5-(5-(4-(1-((2-(2,6-dioxopiperidin-3-yl)-1,3-dioxoisoindolin-5-yl)methyl)piperidine-4-carbonyl)piperazin-1-yl)-1,3,4-thiadiazol-2-yl)-4-(methylamino)pyridin-2-yl)pyrrolo[1,2-b]pyridazine-3-carbonitrile] | – | 105% | – | 18.5 nM | – | 8.96
7 | CNc1cc(-c2ccc3cc(C#N)cnn23)ncc1-c1nnc(C2CCC(NC(=O)Cn3ccc(C(=O)N[C@H](C(=O)N4C[C@H](O)C[C@H]4C(=O)N[C@@H](C)c4ccc(-c5scnc5C)cc4)C(C)(C)C)n3)CC2)s1 (stereo partly drawn) [Example 125, 1-(2-(((1r,4S)-4-(5-(6-(3-cyanopyrrolo[1,2-b]pyridazin-7-yl)-4-(methylamino)pyridin-3-yl)-1,3,4-thiadiazol-2-yl)cyclohexyl)amino)-2-oxoethyl)-N—((S)-1-((2S,4R)-4-hydroxy-2-(((S)-1-(4-(4-methylthiazol-5-yl)phenyl)ethyl)carbamoyl)pyrrolidin-1-yl)-3,3-dimethyl-1-oxobutan-2-yl)-1H-pyrazole-3-carboxamide] | – | 116% | – | 166 nM | – | 8.77
8 | CC(C)Nc1cc(-c2ccc3cc(C#N)cnn23)ncc1-c1nnc([C@H]2CC[C@H](NC(=O)CCOCCOCCOCCNc3cccc4c3C(=O)N(C3CCC(=O)NC3=O)C4=O)CC2)s1 (some centres unmarked) [Example 4, N-((1r,4r)-4-(5-(6-(3-cyanopyrrolo[1,2-b]pyridazin-7-yl)-4-(isopropylamino)pyridin-3-yl)-1,3,4-thiadiazol-2-yl)cyclohexyl)-3-(2-(2-(2-((2-(2,6-dioxopiperidin-3-yl)-1,3-dioxoisoindolin-4-yl)amino)ethoxy)ethoxy)ethoxy)propanamide] | 97% | 98% | 51.8 nM | 52.5 nM | 8.74 | 8.77
9 | CNc1cc(-c2ccc3cc(C#N)cnn23)ncc1-c1nnc(N2CCC(C(=O)N3CCN(Cc4ccc5c(c4)C(=O)N(C4CCC(=O)NC4=O)C5=O)CC3)CC2)s1 (centres unmarked) [Example 157, 7-(5-(5-(4-(4-((2-(2,6-dioxopiperidin-3-yl)-1,3-dioxoisoindolin-5-yl)methyl)piperazine-1-carbonyl)piperidin-1-yl)-1,3,4-thiadiazol-2-yl)-4-(methylamino)pyridin-2-yl)pyrrolo[1,2-b]pyridazine-3-carbonitrile] | – | 104% | – | 17.6 nM | – | 9.00
10 | CNc1cc(-c2ccc3cc(C#N)cnn23)ncc1-c1nnc(N2CCC(NC(=O)CN3CCN(c4ccc5c(c4)C(=O)N(C4CCC(=O)NC4=O)C5=O)CC3)CC2)s1 (centres unmarked) [Example 95, N-(1-(5-(6-(3-cyanopyrrolo[1,2-b]pyridazin-7-yl)-4-(methylamino)pyridin-3-yl)-1,3,4-thiadiazol-2-yl)piperidin-4-yl)-2-(4-(2-(2,6-dioxopiperidin-3-yl)-1,3-dioxoisoindolin-5-yl)piperazin-1-yl)acetamide] | – | 108% | – | 9.74 nM | – | 9.10
11 | CNc1cc(-c2ccc3cc(C#N)cnn23)ncc1-c1nnc([C@H]2CC[C@H](NC(=O)CCC(=O)N[C@H](C(=O)N3C[C@H](O)C[C@H]3C(=O)N[C@@H](C)c3ccc(-c4scnc4C)cc3)C(C)(C)C)CC2)s1 [Example 56, N1-((1r,4S)-4-(5-(6-(3-cyanopyrrolo[1,2-b]pyridazin-7-yl)-4-(methylamino)pyridin-3-yl)-1,3,4-thiadiazol-2-yl)cyclohexyl)-N4—((S)-1-((2S,4R)-4-hydroxy-2-(((S)-1-(4-(4-methylthiazol-5-yl)phenyl)ethyl)carbamoyl)pyrrolidin-1-yl)-3,3-dimethyl-1-oxobutan-2-yl)succinamide] | 115% | 117% | 77.6 nM | 52.9 nM | 8.55 | 8.82
12 | CNc1cc(-c2ccc3cc(C#N)cnn23)ncc1-c1nnc([C@H]2CC[C@H](NC(=O)CCC(=O)N[C@H](C(=O)N3C[C@H](O)C[C@H]3C(=O)N[C@@H](C)c3ccccc3)C(C)(C)C)CC2)s1 [Example 173, N1-((1r,4S)-4-(5-(6-(3-cyanopyrrolo[1,2-b]pyridazin-7-yl)-4-(methylamino)pyridin-3-yl)-1,3,4-thiadiazol-2-yl)cyclohexyl)-N4—((S)-1-((2S,4R)-4-hydroxy-2-(((S)-1-phenylethyl)carbamoyl)pyrrolidin-1-yl)-3,3-dimethyl-1-oxobutan-2-yl)succinamide] | – | 16% | – | 612 nM | – | 9.40
13 | CNc1cc(-c2ccc3cc(C#N)cnn23)ncc1-c1nnc(N2CCN(C(=O)COc3cc(-c4scnc4C)ccc3CNC(=O)[C@@H]3C[C@@H](O)CN3C(=O)[C@@H](NC(=O)C3(F)CC3)C(C)(C)C)CC2)s1 [Example 96, (2S,4R)—N-(2-(2-(4-(5-(6-(3-cyanopyrrolo[1,2-b]pyridazin-7-yl)-4-(methylamino)pyridin-3-yl)-1,3,4-thiadiazol-2-yl)piperazin-1-yl)-2-oxoethoxy)-4-(4-methylthiazol-5-yl)benzyl)-1-((S)-2-(1-fluorocyclopropane-1-carboxamido)-3,3-dimethylbutanoyl)-4-hydroxypyrrolidine-2-carboxamide] | – | 90% | – | 905 nM | – | 8.89
14 | Cc1ncsc1-c1ccc([C@H](C)NC(=O)[C@@H]2C[C@@H](O)CN2C(=O)[C@@H](NC(=O)CCCCC(=O)N2CCN(c3nnc(-c4cnc(-c5ccc6cc(C#N)cnn56)cc4NC(C)C)s3)CC2)C(C)(C)C)cc1 [Example 39, (2S,4R)-1-((S)-2-(6-(4-(5-(6-(3-cyanopyrrolo[1,2-b]pyridazin-7-yl)-4-(isopropylamino)pyridin-3-yl)-1,3,4-thiadiazol-2-yl)piperazin-1-yl)-6-oxohexanamido)-3,3-dimethylbutanoyl)-4-hydroxy-N—((S)-1-(4-(4-methylthiazol-5-yl)phenyl)ethyl)pyrrolidine-2-carboxamide] | 97% | 97% | 357 nM | 357 nM | 8.30 | 8.30
